Results from US6225478A, “Iridoid derivatives and neovascularization inhibitors containing the same as active ingredient” (Tsumura & Co., priority 1999, dated 2001).
Converted amounts (≈) assume the structure as drawn.

How the values were obtained:
Assay type in all cases: cell-based
[1] = system: human umbilical-vein endothelial cells (HUVEC); assay: Cell Proliferation Assay (CPA) Test, HUVEC, MTT; conditions: M199 (2+) medium; for IC50: Homo sapiens, read-out: CPA (IC50 μg/ml)
Protocol: (§1) Furthermore, the sample liquids of compounds used in the CPA and CMA tests were prepared in the manner described below. Firstly, after weighing out each compound, a calculated amount of DMSO was added. After dissolving the compound in the DMSO, phosphate buffered physiological saline (PBS (-)) was added to bring the sample concentration to 1 mg/ml in PBS (-). The amount of DMSO used to dissolve the compounds was adjusted in advance to that the concentration of DMSO at that time was 5%. The resulting liquids were diluted 10-fold with 5% DMSO-PBS (-) solution to prepare sample solutions having a concentration of 0.1 mg/ml. In the TFA test, 320 μl of the prepared 1 mg/ml sample solutions were removed followed by addition of 680 μl of PBS (-) to prepare samples having a concentration of […]. Moreover, 100 μl of this solution was removed followed by addition of 900 μl of PBS (-) to dilute 10-fold and prepare samples having a concentration of 1 μg/ml. P [Cell Proliferation Assay (CPA) Test]
100 μl of the 7th subculture obtained from first generation human umbilical-vein endothelial cells (HUVEC) were disseminated in the wells (N=3) of a 96-well plate (Iwaki, Cat. #4860-010) at a cell concentration of 5×10^4 cells/ml. M-199 medium containing +20% FCS, 10 ng/ml of b-FGF and 10 ng/ml of EGF (abbreviated as "M199 (2+)") was used for the medium.
After culturing for 24 hours at 37° C. in the presence of 5% CO2 under the above conditions, 20 μl/well of MTT solution (solution containing 5 mg/ml of PBS (-)) were added to the control well followed by accurately culturing for 4 hours at 37° C. in the presence of 5% CO2. Following completion of culturing, 100 μl/well of a stop solution (0.001 N aqueous HCl solution containing 10% SDS) were added. On the other hand, 10 μl/well of sample solutions at concentrations of 1 mg/ml and 0.1 mg/ml were added to the other wells.
After culturing for 24 hours at 37° C. in the presence of 5% CO2, the medium was replaced and 100 μl/well of M199 (2+) were added. The samples were also replaced in each well at this time.
Moreover, after additionally culturing for 48 hours at 37° C. in the presence of 5% CO2, 20 μl/well of MTT solution were added to the wells containing sample and the control well followed by accurately culturing for 4 hours at 37° C. and adding 100 μl/well of stop solution.

[2] = system: human umbilical-vein endothelial cells (HUVEC); assay: Cell Migration Assay (CMA) Test, HUVEC (% relative to control); conditions: 24 hours, 60% or less = remarkable inhibition; for activity at 1 µg/mL / activity at 10 µg/mL: Homo sapiens, HUVEC, read-out: CMA (% relative to control)
Protocol: as §1
After disseminating the 7th subculture of HUVEC obtained from the first generation in the same manner as above at 4 ml/well (3.0×10^5 cells/well) in a collagen-coated 6-well plate (NUNC), the cells were cultured for 48 hours at 37° C. in the presence of 5% CO2. The cells reached nearly a completely confluent state as a result of this culturing.
A double-edged, disposable razor blade was divided into four sections, of which one of those sections was pinched between a pair of forceps. Using this piece of razor blade, the cell surface in the above confluent state was scraped off. Two areas of the cell surface were scraped off in each well.
After washing the surface of the wells from which the cells had been scraped off with medium, 4.0 ml of fresh M199 (2+) medium were added followed by addition of 40 μl or 4 μl of sample solution (1 mg/ml). The cells were cultured for 24 hours at 37° C. in the presence of 5% CO2. After discarding the culture liquid, the cells were fixed for 30 minutes with methanol. Next, after staining the cells for 4 hours with Giemsa stain, the plates were washed with tap water and air dried.
Measurement of cell migration was performed by microscopically counting the number of cells that had newly migrated within the range of a 1 mm×1 mm block. […] The total number of cells counted in blocks 1 through 5 were then totaled to determine the overall total number of cells. Four fields were counted for each well.
Evaluation was performed determining the cell migration (%) according to the following formula.
Cell migration rate=number of migrating cells to which sample was added×100/number of migrating of control (+)
Control (+) indicates the number of migrating cells in the control well containing M199 (2+).

[3] = system: human umbilical-vein endothelial cells (HUVEC); assay: Tube Formation Assay (TFA) Test, HUVEC in collagen gel; conditions: 20 hours, 40% or less judged remarkable; for inhibition at 1 µg/mL / inhibition at 10 µg/mL: Homo sapiens, HUVEC, 20 h, read-out: TFA (inhibition rate, %)
Procedure, shortened: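 HUVEC (7th subculture, 1×10^5 cells/ml) attached to collagen gel for 2 h at 37 °C, given sample and overlaid with collagen, then cultured 20 h at 37 °C, 5% CO2 in M-199 with 20% FCS, 30 ng/ml b-FGF and 0.1 μM PMA. Tube length measured by image analysis; % inhibition relative to positive and negative controls.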

Row | Molecule | IC50 [1] | activity at 1 µg/mL ([2]; 1 μg/ml) | activity at 10 µg/mL ([2]; 10 μg/ml) | inhibition at 1 µg/mL ([3]; 1 μg/ml) | inhibition at 10 µg/mL ([3]; 10 μg/ml) | CPA (IC50 μg/ml) [1] | CMA (% relative to control) ([2]; 1 μg/ml) | CMA (% relative to control) ([2]; 10 μg/ml) | TFA (inhibition rate, %) ([3]; 1 μg/ml) | TFA (inhibition rate, %) ([3]; 10 μg/ml)
1 | CCCCCCOC(=O)C1=CO[C@@H](OC(=O)NC)[C@@H]2[C@@H]1C[C@@H]1O[C@]21C [compound 5, (1S,4aS,6S,7R,7aR)-6,7-epoxy-1,4a,5,6,7,7a-hexahydro-7-methyl-1-(methylcarbamoyloxy) cyclopenta [c]-pyrane-4-carboxylic acid n-hexylester] | 44.9 µg/mL (≈ 127 µM) | 98.6% | 82% | 20.8% | 34.5% |  |  |  |  | 
2 | CNC(=O)OC1OC=C(C(=O)N2CCN(CCO)CC2)C2CC3OC3(C)C12 [compound 22, (1S,4aS,6S,7R,7aR)-6,7-epoxy-1,4a,5,6,7,7a-hexahydro-7-methyl-1-(methylcarbamoyloxy) cyclopenta [c]-pyrane-4-carboxylic acid 4-(2-hydroxyethyl) piperazylamide] | > 100 µg/mL | 93.4% | 97.7% | 50.8% | 74.9% |  |  |  |  | 
3 | CNC(=O)O[C@@H]1OCC(C(=O)OC)[C@H]2C[C@@H]3O[C@]3(C)C12 (stereo in doubt) [Compound 55, (1S,4R,4aS,6S,7R,7aR)-6,7-epoxy-7-methyl-1-(methylcarbamoyloxy)-1,3,4,4a,5,6,7,7a-octahydrocyclopenta [c] pyrane-4-carboxylic acid methylester] | > 100 µg/mL | 97.8% | 91.8% | 13.9% | 3.8% |  |  |  |  | 
4 | CC[C@]12O[C@H]1C[C@@H]1C(C(=O)OC)=CO[C@@H](OC(=O)NC)[C@@H]12 [compound 43, (1S,4aS,6s,7R,7aR)-6,7-epoxy-7-ethyl-1,4a,5,6,7,7a-1-hexahydro-1-(methylcarbamoyloxy) cyclopenta [c] pyrane-4-carboxylic acid methylester] | > 100 µg/mL | 99.9% | 89.3% | 12.4% | 9.1% |  |  |  |  | 
5 | CNC(=O)O[C@@H]1OC=C(C(=O)NCCc2ccccc2)[C@H]2C[C@@H]3O[C@]3(C)[C@H]12 [compound 28, (1S,4aS,6S,7R,7aR)-6,7-epoxy-1,4a,5,6,7,7a-hexahydro-7-methyl-1-(methylcarbamoyloxy) cyclopenta [c]-pyrane-4-carboxylic acid phenylethylamide] | > 100 µg/mL | 94.3% | 114% | 41.3% | 36.8% |  |  |  |  | 
6 | COC(=O)C1=CO[C@@H](OC(=O)Nc2ccc(F)cc2)[C@@H]2[C@@H]1C[C@@H]1O[C@]21C [compound 36, (1S,4aS,6S,7R,7aR)-6,7-epoxy-1,4a,5,6,7,7a-hexahydro-1-[(4-fluorophenyl)carbamoyloxy]-7-methylcyclopenta [c] pyrane-4-carboxylic acid methylester] | > 100 µg/mL | 95% | 99.7% | 6.9% | -18.3% |  |  |  |  | 
7 | CNC(=O)OC1OC=C(C(=O)N2CC(C)OC(C)C2)C2CC3OC3(C)C12 [compound 24, (1S,4aS,6S,7R,7aR)-6,7-epoxy-1,4a,5,6,7,7a-hexahydro-7-methyl-1-(methylcarbamoyloxy) cyclopenta [c]-pyrane-4-carboxylic acid 2,6-dimethylmorpholylamide] | > 100 µg/mL | 96.9% | 112% | 41.3% | 24.2% |  |  |  |  | 
8 | CNC(=O)O[C@@H]1OC=C(C(=O)NC)[C@H]2C[C@@H]3O[C@]3(C)[C@H]12 [compound 15, (1S,4aS,6S,7R,7aR)-6,7-epoxy-1,4a,5,6,7,7a-hexahydro-7-methyl-1-(methylcarbamoyloxy) cyclopenta [c]-pyrane-4-carboxylic acid methylamide] | > 100 µg/mL | 71.1% | 58.3% | -16% | -8% |  |  |  |  | 
9 | CCCCCCNC(=O)C1=COC(OC(=O)NC)C2C1CC1OC12C [compound 17, (1S,4aS,6S,7R,7aR)-6,7-epoxy-1,4a5 6,7,7a-hexahydro-7-methyl-1-(methylcarbamoyloxy) cyclopenta [c]-pyrane-4-carboxylic acid n-hexylamide] | 69.1 µg/mL (≈ 196 µM) | 94.4% | 114% | 19% | 23.4% |  |  |  |  | 
10 | CNC(=O)O[C@@H]1OC=C(C(=O)OC)[C@H]2C[C@@H]3OC3(COC(=O)OC)C12 (stereo in doubt) [compound 47, (1S,4aS,6S,7R,7aR)-6,7-epoxy-7-(methoxycarbonyloxymethyl)-1-(methylcarbamoyloxy)-1,4a,5,6,7,7a-hexahydrocyclopenta [c] pyrane-4-carboxylic acid methylester] | > 100 µg/mL | 95.9% | 60.5% | -27.3% | 2.6% |  |  |  |  | 
11 | Protamine [reference compound] |  |  |  |  |  | 52.7 µg/mL | 69.2% | 50.0% | 41.0% | 25.4%
12 | CNC(=O)OCC12O[C@H]1C[C@@H]1C(C(=O)OC)=CO[C@@H](OC(=O)NC)C12 (stereo in doubt) [compound 48, (1S,4aS,6S,7R,7aR)-6,7-epoxy-1-(methylcarbamoyloxy)-7-(methylcarbamoyloxymethyl)-1,4a,5,6,7,7a-hexahydrocyclopenta [c] pyrane-4-carboxylic acid methylester] | > 100 µg/mL | 93.3% | 107% | 51.5% | 54.1% |  |  |  |  | 
13 | CNC(=O)O[C@@H]1OC=C(C(=O)OCc2ccccc2)[C@H]2C[C@@H]3O[C@]3(C)[C@H]12 [compound 11, (1S,4aS,6S,7R,7aR)-6,7-epoxy-7-methyl-1-(methylcarbamoyloxy)-1,4a,5,6,7,7a-hexahydrocyclopenta [c]-pyrane-4-carboxylic acid benzyl ester] | > 100 µg/mL | 102% | 85.5% | 20.7% | 40.3% |  |  |  |  | 
